{"source": "patent US7700579B2", "about": "“Process for the preparation of piroxicam: b-cyclodextrin inclusion compounds” (Chiesi Farmaceutici S.p.A., priority 2002, dated 2010)", "origin": "cited, not measured here", "conditions": "pH 5, 37° C."}
{"molecule": "CN1C(C(=O)Nc2ccccn2)=C(O)c2ccccc2S1(=O)=O", "note": "[Piroxicam]", "values": [{"measurement": "solubility in water", "result": 0.003, "unit": "%"}]}
